Experimental findings from US20150173351A1, “MICROCAPSULE” (priority 2012, published 2015) are described below.

This data set can be described thus: Retention rate of the agriculturally active ingredient after xenon light irradiation (photodegradation). It counts as physicochemical. The following applies: active ingredient alone, air-dried on glass petri dish; xenon light (290 nm cutoff), 0.68 W/m^2 at 340 nm, 8 hours, 35° C.; weight % relative to 5 mg. The protocol:
A method for the calculation of a retention rate of the agriculturally active ingredient defined above is more specifically as follows. First, 250 mg of the agriculturally active ingredient is dissolved in 50 mL of a solvent such as acetone, which can sufficiently dissolve the agriculturally active ingredient and also has high volatility, and 1 mL of the solution is added to a glass petri dish having a diameter of 6 cm using a one-mark pipette, spread entirely over the petri dish, and then air-dried at room temperature. The petri dish is covered with a lid made of quartz glass and then set in a weathering tester (manufactured by Q-Lab Corporation under the trade name of Q-SUN Xenon Accelerated Weathering Tester, Model Xe-3) equipped with a borosilicate filter (manufactured by Q-Lab Corporation under the trade name of Daylight-BB Optical Filter) attached thereto. After irradiation with xenon light under the conditions of an intensity at 340 nm of 0.68 W/m^2 and a temperature of 35° C. (35° C. as measured by an insulated black panel thermometer) for 8 hours, the amount of the agriculturally active ingredient remaining on the petri dish is determined by a known determination method such as high-performance liquid chromatography. It is possible to determine a retention rate by calculating as the weight percentage relative to 5 mg of the agriculturally active ingredient used above. The above agriculturally active ingredient used in the microcapsule of the present invention may be any of an insecticidally active component, a fungicidally active component, and a herbicidally active component, and is not particularly limited. The agriculturally active ingredient includes fenpyrazamine, allethrin, and prallethrin. […] It is preferred to use an agriculturally active ingredient which is solid at normal temperature (25° C.), for example fenpyrazamine.

As to `C=CCC1=C(C)C(OC(=O)C2C(C=C(C)C)C2(C)C)CC1=O` (stereo not drawn) [allethrin], the “retention rate after irradiation with xenon light” value worked out at 3.3%.
The value for `C=CCSC(=O)n1c(N)c(-c2ccccc2C)c(=O)n1C(C)C` [fenpyrazamine] was 28.1%.
Regarding `C#CCC1=C(C)C(OC(=O)C2C(C=C(C)C)C2(C)C)CC1=O` (stereo not drawn) [prallethrin], the “retention rate after irradiation with xenon light” value amounted to 6.4%.
